Read-outs that look alike come from different tables or passages of the source.
Tests used:
Type in all cases: biochemical
[1] = target: Recombinant human JAK1 catalytic domain (Homo sapiens (Human), UniProt P23458); experiment: JAK1 kinase assay (Z'-LYTE, Tyr 6 Peptide)
Method: (§1) JAK1/2/3 kinase assay are performed in vitro using Kit-Tyr 6 Peptide (Invitrogen, Cat. No. PV4122). TYK2 kinase assay are performed in vitro using Z′-LYTE™ Kinase Assay Kit-Tyr 3 Peptide (Invitrogen, Cat. No. PV3192). […] All compounds are initially tested at 8 different concentrations (1 μM down to 0.0003 μM) using a 1:3 serial dilution scheme.

[2] = target: Recombinant human JAK2 catalytic domain (Homo sapiens (Human), UniProt O60674); experiment: JAK2 kinase assay (Z'-LYTE, Tyr 6 Peptide); settings: read-out: IC50 in JAK2 kinase assay
Method: as §1

[3] = target: Recombinant human JAK3 catalytic domain (Homo sapiens (Human), UniProt P52333); experiment: JAK3 kinase assay (Z'-LYTE, Tyr 6 Peptide)
Method: as §1

[4] = read-out: IC50 in JAK1 kinase assay
[5] = read-out: IC50 in JAK3 kinase assay

Recombinant human JAK2 catalytic domain, sequence (O60674 849-1124): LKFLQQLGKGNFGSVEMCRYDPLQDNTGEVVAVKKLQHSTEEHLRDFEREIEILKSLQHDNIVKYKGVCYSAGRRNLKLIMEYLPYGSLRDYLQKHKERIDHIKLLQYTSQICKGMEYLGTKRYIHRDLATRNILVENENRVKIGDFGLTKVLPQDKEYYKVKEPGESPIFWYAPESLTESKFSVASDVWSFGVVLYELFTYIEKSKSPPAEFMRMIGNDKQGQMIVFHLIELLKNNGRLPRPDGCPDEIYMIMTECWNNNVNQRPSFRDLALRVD
Recombinant human JAK1 catalytic domain, sequence (P23458 875-1153): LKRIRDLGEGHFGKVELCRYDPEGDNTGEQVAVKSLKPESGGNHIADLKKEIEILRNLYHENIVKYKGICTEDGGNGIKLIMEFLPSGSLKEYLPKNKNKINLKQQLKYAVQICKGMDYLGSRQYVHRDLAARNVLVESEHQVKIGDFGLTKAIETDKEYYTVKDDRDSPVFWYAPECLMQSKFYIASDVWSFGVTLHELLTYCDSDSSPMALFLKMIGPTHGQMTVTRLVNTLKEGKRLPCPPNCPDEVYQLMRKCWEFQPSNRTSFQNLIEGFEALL
Recombinant human JAK3 catalytic domain, sequence (P52333 822-1111): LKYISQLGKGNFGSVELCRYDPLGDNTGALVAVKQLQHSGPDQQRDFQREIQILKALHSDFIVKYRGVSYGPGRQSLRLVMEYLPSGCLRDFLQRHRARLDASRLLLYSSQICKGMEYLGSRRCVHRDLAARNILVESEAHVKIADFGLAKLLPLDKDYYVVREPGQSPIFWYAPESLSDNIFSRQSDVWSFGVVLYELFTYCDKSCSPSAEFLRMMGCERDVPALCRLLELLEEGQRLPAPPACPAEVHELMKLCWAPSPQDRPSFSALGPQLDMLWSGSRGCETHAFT

IC50 [1, 4] | IC50 [2] | Structure (SMILES) | IC50 [3, 5] | IC50 ([1]; read-out: JAK1 (enzyme, IC50)) | IC50 ([3]; read-out: JAK3 (enzyme, IC50))
1 to 100 nM | 100 to 1000 nM | Cc1cc(N(C)[C@@H]2CCN(c3ncnc4[nH]ccc34)C2)ncc1[N+](=O)[O-] [Compound 77] | 100 to 1000 nM |  | 
1 to 100 nM | 1 to 100 nM | CN(c1ccc(C#N)cc1)[C@@H]1CCN(c2ncnc3[nH]ccc23)C1 [Compound 104] | 100 to 1000 nM |  | 
 |  | CN(c1ccc(C(=O)Nc2nccs2)cn1)[C@@H]1CCN(c2ncnc3[nH]ccc23)C1 [Compound 199] |  | 14 nM | 522 nM
1 to 100 nM | 1 to 100 nM | CN(c1ccc(C(=O)NC[C@H](O)c2ccccc2)cc1F)[C@@H]1CCN(c2ncnc3[nH]ccc23)C1 [Compound 202] |  |  | 
1 to 100 nM | 100 to 1000 nM | CN(c1ccc(NS(C)(=O)=O)cn1)[C@@H]1CCN(c2ncnc3[nH]ccc23)C1 [Compound 217] |  |  | 
1 to 100 nM | 100 to 1000 nM | CC(C)S(=O)(=O)Nc1ccc(N(C)[C@@H]2CCN(c3ncnc4[nH]ccc34)C2)nc1 [Compound 218] |  |  | 
1 to 100 nM | 1 to 100 nM | CN(c1ccc(S(=O)(=O)NC2CC2)cn1)[C@@H]1CCN(c2ncnc3[nH]ccc23)C1 [Compound 236] | 1 to 100 nM |  | 
1 to 100 nM | 100 to 1000 nM | CNS(=O)(=O)c1ccc(N(C)[C@@H]2CCN(c3ncnc4[nH]ccc34)C2)nc1 [Compound 239] |  |  | 
1 to 100 nM | 1 to 100 nM | CN(c1ccc(S(=O)(=O)NC2COC2)cn1)[C@@H]1CCN(c2ncnc3[nH]ccc23)C1 [Compound 242] |  |  | 
1 to 100 nM | 100 to 1000 nM | CN(c1ccc(S(=O)(=O)NCCO)cn1)[C@@H]1CCN(c2ncnc3[nH]ccc23)C1 [Compound 243] |  |  | 
1 to 100 nM | 100 to 1000 nM | CN(c1ccc(S(=O)(=O)N2CCOCC2)cn1)[C@@H]1CCN(c2ncnc3[nH]ccc23)C1 [Compound 252] |  |  | 
1 to 100 nM | 100 to 1000 nM | CN(c1ccc(S(=O)(=O)NC2CCOCC2)cn1)[C@@H]1CCN(c2ncnc3[nH]ccc23)C1 [Compound 259] |  |  | 

Structure (SMILES) | IC50 [1, 4] | IC50 [2] | IC50 [3, 5] | IC50 ([1]; read-out: JAK1 (enzyme, IC50)) | IC50 ([3]; read-out: JAK3 (enzyme, IC50))
COc1nc(N(C)[C@@H]2CCN(c3ncnc4[nH]ccc34)C2)ccc1C#N [Compound 42] | 1 to 100 nM | 1 to 100 nM | 1 to 100 nM |  | 
CN(c1ccc(Cl)cn1)[C@@H]1CCN(c2ncnc3[nH]ccc23)C1 [Compound 67] | 1 to 100 nM | 1 to 100 nM | 1 to 100 nM |  | 
COc1cc2ncnc(N(C)[C@@H]3CCN(c4ncnc5[nH]ccc45)C3)c2cc1OC [Compound 86] | 1 to 100 nM | 1 to 100 nM | 100 to 1000 nM |  | 
CN(c1ccnc(C#N)c1)[C@@H]1CCN(c2ncnc3[nH]ccc23)C1 [Compound 121] | 1 to 100 nM | 1 to 100 nM | 1 to 100 nM |  | 
CN(c1ccncn1)[C@@H]1CCN(c2ncnc3[nH]ccc23)C1 [Compound 154, (R)—N-(1-(7H-pyrrolo[2,3-d]pyrimidin-4-yl)pyrrolidin-3-yl)-N-methylpyrimidin-4-amine] | 1 to 100 nM | 100 to 1000 nM |  |  | 
Cc1nc(N(C)[C@@H]2CCN(c3ncnc4[nH]ccc34)C2)ccc1C#N [Compound 155] | 1 to 100 nM | 1 to 100 nM |  |  | 
CN(c1ccc(-c2nn[nH]n2)cc1F)[C@@H]1CCN(c2ncnc3[nH]ccc23)C1 [Compound 161] | 1 to 100 nM | 1 to 100 nM |  |  | 
CN(c1ccc(S(=O)(=O)NC[C@H]2CCCO2)cn1)[C@@H]1CCN(c2ncnc3[nH]ccc23)C1 [Compound 241] | 1 to 100 nM | 1 to 100 nM |  |  | 

Source: patent US9346810B2, “Pyrrolopyrimidine compounds and uses thereof” (HUTCHISON MEDIPHARMA LIMITED, priority 2010, dated 2016)
